Assays:
[1] = system: cocklebur; assay: Test B pre/postemergence cocklebur; format: in vivo, Xanthium strumarium
Outline: (§1)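 Test chemicals in a non-phytotoxic solvent mixture with surfactant were sprayed preemergence onto planted seeds and postemergence onto plants 2 to 18 cm tall (1- to 4-leaf stage). After twelve to sixteen days in a greenhouse, injury was visually rated against untreated controls from 0 (no effect) to 10 (complete control).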

[2] = system: duck salad; assay: Test B flood test duck salad; format: in vivo, Heteranthera limosa
Outline: (§2)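 Flood test on plants grown to the 2-leaf stage; treated plants kept in greenhouse twelve to sixteen days, then visually rated against controls on a 0 (no effect) to 10 (complete control) scale.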

[3] = system: purple nutsedge; assay: Test B pre/postemergence purple nutsedge; format: in vivo, Cyperus rotundus
Outline: as §1

[4] = system: corn; assay: Test B pre/postemergence corn; format: in vivo, Zea mays
Outline: as §1

[5] = system: velvetleaf; assay: Test B pre/postemergence velvetleaf; format: in vivo, Abutilon theophrasti
Outline: as §1

[6] = system: morningglory; assay: Test B pre/postemergence morningglory; format: in vivo, Ipomoea hederacea
Outline: as §1

[7] = system: sugar beet; assay: Test B pre/postemergence sugar beet; format: in vivo, Beta vulgaris
Outline: as §1

[8] = system: crabgrass; assay: Test B pre/postemergence crabgrass; format: in vivo, Digitaria sanguinalis
Outline: as §1

[9] = system: blackgrass; assay: Test B pre/postemergence blackgrass; format: in vivo, Alopecurus myosuroides
Outline: as §1

[10] = system: rape; assay: Test B pre/postemergence rape; format: in vivo, Brassica napus
Outline: as §1

[11] = system: smallflower flatsedge; assay: Test B flood test smallflower flatsedge; format: in vivo, Cyperus difformis
Outline: as §2

[12] = system: wheat; assay: Test B pre/postemergence wheat; format: in vivo, Triticum aestivum
Outline: as §1

[13] = system: pigweed; assay: Test B pre/postemergence pigweed; format: in vivo, Amaranthus retroflexus
Outline: as §1

[14] = system: rice; assay: Test B flood test rice; format: in vivo, Oryza sativa
Outline: as §2

[15] = system: giant foxtail; assay: Test B pre/postemergence giant foxtail; format: in vivo, Setaria faberii
Outline: as §1

[16] = system: surinam grass; assay: Test B pre/postemergence surinam grass; format: in vivo, Brachiaria decumbens
Outline: as §1

[17] = Postemergence, Rate 62 g/ha, scale 0 to 10, 0 is no effect, 10 is complete control
[18] = Postemergence, Rate 125 g/ha, scale of 0 to 10 where 0 is no effect and 10 is complete control
[19] = Postemergence, Rate 250 g/ha, scale of 0 to 10, 0 is no effect, 10 is complete control
[20] = Postemergence, Rate 500 g/ha, scale of 0 to 10 where 0 is no effect and 10 is complete control
[21] = Preemergence, Rate 62 g/ha, scale 0 to 10 (0 no effect, 10 complete control)
[22] = Preemergence, Rate 125 g/ha, scale of 0 to 10 where 0 is no effect and 10 is complete control
[23] = Preemergence, Rate 500 g/ha, scale of 0 to 10 where 0 is no effect and 10 is complete control
[24] = Rate 62 g/ha, flood test species, Pre-emergence, visual evaluation after twelve to sixteen days
[25] = Rate 125 g/ha, under heading Pre-emergence, flood test species, visual evaluation after twelve to sixteen days
[26] = Rate 250 g/ha, Pre-emergence (flood test species), scale 0 to 10, 0 is no effect, 10 is complete control
[27] = Rate 500 g/ha, Pre-emergence section of Table B, 0 to 10 scale (0 no effect, 10 complete control)

SMILES: C#CC(C)n1c(=O)on(C(=O)N(c2ccccc2)C(C)C)c1=O (stereo not drawn) [Compound 609]
- Plant response rating, Cocklebur [1, 17]: 0
- Plant response rating, Cocklebur [1, 18]: 1
- Cocklebur plant response rating [1, 19]: 2
- Plant response rating, Cocklebur [1, 20]: 3
- Cocklebur plant response rating [1, 21]: 0
- Cocklebur plant response rating [1, 22]: 0
- Cocklebur plant response rating (0 to 10 scale) ([1]; Preemergence, Rate 250 g/ha): 0
- Plant response rating, Cocklebur [1, 23]: 3
- Plant response rating, Ducksalad (0 to 10 scale, 0 is no effect, 10 is complete control) [2, 24]: 0
- Ducksalad plant response rating (0 to 10 scale, 0 is no effect, 10 is complete control) [2, 25]: 0
- Ducksalad plant response rating [2, 26]: 0
- Ducksalad plant response rating [2, 27]: 0
- Plant response rating, Nutsedge [3, 17]: 0
- Plant response rating, Nutsedge [3, 18]: 0
- Nutsedge plant response rating [3, 19]: 0
- Plant response rating, Nutsedge [3, 20]: 6
- Nutsedge plant response rating [3, 21]: 0
- Nutsedge plant response rating [3, 22]: 0
- Plant response rating, Nutsedge [3, 23]: 4
- Plant response rating, Corn [4, 17]: 0
- Plant response rating, Corn [4, 18]: 0
- Corn plant response rating [4, 19]: 2
- Plant response rating, Corn [4, 20]: 7
- Corn plant response rating [4, 21]: 2
- Corn plant response rating [4, 22]: 2
- Corn plant response rating (0 to 10 scale) ([4]; Preemergence, Rate 250 g/ha): 6
- Plant response rating, Corn [4, 23]: 9
- Plant response rating, Velvetleaf [5, 17]: 3
- Plant response rating, Velvetleaf [5, 18]: 3
- Velvetleaf plant response rating [5, 19]: 7
- Plant response rating, Velvetleaf [5, 20]: 8
- Velvetleaf plant response rating [5, 21]: 7
- Velvetleaf plant response rating [5, 22]: 8
- Plant response rating, Velvetleaf [5, 23]: 9
- Plant response rating, Morningglory [6, 17]: 8
- Plant response rating, Morningglory [6, 18]: 10
- Morningglory plant response rating [6, 19]: 10
- Plant response rating, Morningglory [6, 20]: 10
- Morningglory plant response rating [6, 21]: 0
- Morningglory plant response rating [6, 22]: 0
- Plant response rating, Morningglory [6, 23]: 5
- Plant response rating, Sugarbeets [7, 17]: 0
- Plant response rating, Sugarbeets [7, 18]: 0
- Sugarbeets plant response rating [7, 19]: 0
- Plant response rating, Sugarbeets [7, 20]: 1
- Sugarbeets plant response rating [7, 21]: 0
- Sugarbeets plant response rating [7, 22]: 3
- Plant response rating, Sugarbeets [7, 23]: 8
- Plant response rating, Crabgrass [8, 17]: 5
- Plant response rating, Crabgrass [8, 18]: 9
- Crabgrass plant response rating [8, 19]: 9
- Crabgrass plant response rating [8, 21]: 7
- Crabgrass plant response rating [8, 22]: 7
- Plant response rating, Crabgrass [8, 23]: 9
- Plant response rating, Blackgrass [9, 17]: 5
- Plant response rating, Blackgrass [9, 18]: 8
- Blackgrass plant response rating [9, 19]: 8
- Plant response rating, Blackgrass [9, 20]: 8
- Blackgrass plant response rating [9, 21]: 7
- Blackgrass plant response rating [9, 22]: 8
- Blackgrass plant response rating (0 to 10 scale) ([9]; Preemergence, Rate 250 g/ha): 9
- Blackgrass plant response rating [9, 23]: 10
- Plant response rating, Rape [10, 17]: 0
- Plant response rating, Rape [10, 18]: 0
- Rape plant response rating [10, 19]: 1
- Plant response rating, Rape [10, 20]: 3
- Rape plant response rating [10, 21]: 0
- Rape plant response rating [10, 22]: 0
- Plant response rating, Rape [10, 23]: 10
- Plant response rating, S. Flatsedge (0 to 10 scale, 0 is no effect, 10 is complete control) [11, 24]: 0
- S. Flatsedge plant response rating (0 to 10 scale, 0 is no effect, 10 is complete control) [11, 25]: 0
- S. Flatsedge plant response rating [11, 26]: 0
- S. Flatsedge plant response rating [11, 27]: 0
- Plant response rating, Wheat [12, 17]: 0
- Plant response rating, Wheat [12, 18]: 0
- Wheat plant response rating [12, 19]: 2
- Plant response rating, Wheat [12, 20]: 6
- Wheat plant response rating [12, 21]: 0
- Wheat plant response rating [12, 22]: 0
- Plant response rating, Wheat [12, 23]: 6
- Plant response rating, Redroot pigweed [13, 17]: 0
- Plant response rating, Redroot pigweed [13, 18]: 0
- Redroot pigweed plant response rating [13, 19]: 2
- Plant response rating, Redroot pigweed [13, 20]: 9
- Redroot pigweed plant response rating [13, 21]: 8
- Plant response rating, Redroot pigweed [13, 23]: 10
- Plant response rating, Rice (0 to 10 scale, 0 is no effect, 10 is complete control) [14, 24]: 0
- Rice plant response rating (0 to 10 scale, 0 is no effect, 10 is complete control) [14, 25]: 0
- Rice plant response rating [14, 26]: 0
- Rice plant response rating [14, 27]: 0
- Plant response rating, Giant foxtail [15, 17]: 6
- Plant response rating, Giant foxtail [15, 18]: 9
- Giant foxtail plant response rating [15, 19]: 9
- Plant response rating, Giant foxtail [15, 20]: 9
- Giant foxtail plant response rating [15, 21]: 10
- Giant foxtail plant response rating [15, 22]: 10
- Plant response rating, Giant foxtail [15, 23]: 10
- Plant response rating, B. signalgrass [16, 17]: 0
- Plant response rating, B. signalgrass [16, 18]: 1
- B. signalgrass plant response rating [16, 19]: 5
- Plant response rating, B. signalgrass [16, 20]: 8
- B. signalgrass plant response rating [16, 21]: 3
- B. signalgrass plant response rating [16, 22]: 6
- B. signalgrass plant response rating (0 to 10 scale, 0 is no effect, 10 is complete control) ([16]; Preemergence, Rate 250 g/ha): 9
- B. signalgrass plant response rating [16, 23]: 10

From US6737383B1, “Herbicidal oxadiazolidines” (priority 1999, dated 2004)
